Test results: patent US7838557B2, “Concentrated X-ray contrast media can act as universal antigens and can inhibit or prevent allergic reactions” (priority 2001, dated 2010)

How the values were obtained:
IgG anti-γ-globulin = assay: Passive red blood cell hemagglutination inhibition, γ-globulin vs. anti-γ-globulin; format: binding; details: γ-globulin bound to sheep RBC; incubation 2-3 hours at room temperature
Excerpt: Employing a highly sensitive test for antibody-antigen complexing (passive red blood cell hemagglutination inhibition), we found what we consider the answer to this problem. Ovalbumin and gamma globulin (Sigma) were bound to glutaraldehyde stabilized sheep red blood cells (Inter-Cell Technologies, Hopewell, N.J.). Bis-diazotized benzidine was used to bind the ovalbumin to the RBC's. The gamma-globulin bound directly. In both the case of the ovalbumin and the gamma-globulin, the sensitized red blood cells were allowed to incubate with each of the contrast media (methylglucamine iothalamate [CONRAY; 282 mg iodine/ml, Mallinckrodt Medical, St. Louis Mo.], ioversol [[…] 320; 320 mg iodine/ml, […]; 320 mg iodine/ml, Mallinckrodt] and […]; 300 mg iodine/ml, Schering Pharmaceutical; […] When competition occurred, there would be a diminished diameter of the agglutination, depending on the antibody titer that could be compared to a control, where saline was substituted for the CM. With complete competition (inhibition), no agglutination would be visible and the RBCs would form a small button of cells at the bottom of the microtiter well. Visible agglutination was evaluated on a 1+ to 4+ basis. Studies were also carried out where the RBCs were incubated with CM before or after binding of the antigen to BDB or the RBC to determine whether competition of the CM with the antigen might actually represent displacement of the […] from the RBC surface. It was discovered that contrast media can in fact act as an antigen and combine with antibodies ([…]. and […]., Academic Radiology 1998, 5 (suppl. 1; […]-[…])). This was shown when, at various concentrations, individual contrast media would inhibit the agglutination of RBC-attached ovalbumin or RBC-attached gamma globulin in the presence of their respective antibodies, thus resulting in a button of cells, rather than agglutination, in the bottom of the microtiter well.

Brown Norway Rats = assay: Mean arterial blood pressure after i.v. contrast media injection, Brown Norway rats; format: in vivo; details: mean ± S.E.
Sprague Dawley Rats = assay: Mean arterial blood pressure after i.v. contrast media injection, Sprague Dawley rats; format: in vivo; details: mean ± S.E.
[1] = test system: ovalbumin-sensitized Sprague Dawley rats; assay: Blood pressure in ovalbumin anaphylaxis of ovalbumin-sensitized rats; format: in vivo; details: CM i.v. 6 hours before, 45 minutes before, concurrently, or 10 minutes after 10 mg ovalbumin
Description: To further substantiate the concept that contrast media, acting as pseudoantigens, could interfere with existing antigen-antibody reactions, an experiment was conducted where a series of rats were sensitized to ovalbumin and later challenged the rats by intravenous injections of ovalbumin.
Varying CM or other materials were injected into the tail vein of anesthetized Sprague Dawley rats ([…]). The CM tested were IOXAGLATE and IODIXANOL. Both are CM dimers and IOXAGLATE is ionic and IODIXANOL is nonionic. The CM injections were done 12 to 14 days after sensitization of the rats by intraperitoneal injections of 1 mg of ovalbumin in normal saline. A Propaq blood pressure apparatus was connected to polyethylene catheters inserted into a carotid artery to monitor mean arterial blood pressure. Injection rates were 6 ml/kg/min. The CM were injected I.V. either 6 hours before, 45 minutes before, concurrent with, or 10 minutes post challenge of a dose of 10 mg of ovalbumin. Saline injections, equiosmolar to the CM and injected at the same time intervals served as controls.

[2] = test system: ragweed pollen sensitized rats; assay: Experimental allergic conjunctivitis, ragweed pollen sensitized rats; format: in vivo, Sprague-Dawley rats
Excerpt: In this Example, the potential protective effect of a contrast material on experimental allergic conjunctivitis induced in rats was examined. The rats were sensitized systemically to either ovalbumin or ragweed pollen and 10 to 12 days later obtained local sensitization by several applications of the respective antigens to the eyes. The rats were then challenged with a larger dose of the antigen accompanied by either the contrast media or equiosmolal saline and sacrificed at several different time periods for examination of the excised eyes.
The tissues were examined on a “blinded” basis and assigned a 0 to 3+ rating based on the perceived abundance of inflammatory cells (mostly lymphocytes, but also including eosinophils, polymorphonuclear leukocytes, and mast cells). The ovalbumin experiment was carried out at 3 hours post antigen application (8 rats) and at 24 hours post application (8 rats) and the ragweed study was carried out at 1 hour post application (8 rats) and at 24 hours post application (8 rats). The cumulative scores for the ratings in each set of rats were recorded. Details of the ovalbumin study are as follows.
A ragweed pollen experiment also involved 16 Sprague-Dawley rats born approximately 2 months previously and sensitized on Day 1 with SQ injections of 0.1 ml of N. saline containing 100 μg of ragweed pollen (P-0146, Sigma) and 20 mg alum. On Day 14, 20 μl of saline (left eye) or 20 μl of IODIXANOL (right eye) were applied to the eyes. 15 min. later, both eyes were treated with 10 μl of phosphate buffered saline containing 1.5 mg of ragweed pollen. The process was done 4 times at 15 min. intervals.

[3] = test system: Brown-Norway and Sprague Dawley rats; assay: Blood pressure changes in rats after H-1 blocker, L-NAME or contrast media (text and FIGS. 4A-4B); format: in vivo
[4] = test system: rats injected intradermally with serum from ovalbumin sensitized rats; assay: Passive cutaneous anaphylaxis (PCA), Evans Blue extravasation; format: in vivo; details: for Stain (mm ± S.E./10): 50 μl sensitized serum
Description: In a further test of the ability of appropriate contrast media to mitigate ongoing antigen-antibody reactions, a passive cutaneous anaphylaxis (PCA) experiment was performed in rats.
In this Example, rats were injected intradermally with 50 μL of serum from ovalbumin sensitized rats and varying mixtures of Na/meglumine iothalamate (MD-76; 370 mg iodine/ml, Mallinckrodt) and normal saline to a total of 50 μl. This was followed in 5-7 hours by intravenous injections of 1 mg ovalbumin along with Evans Blue and then measurement of the subsequent extravasation of the blue coloring in the area under the skin. Evans Blue binds to serum albumin and the diameter of the area of blue indicates extravasation of albumin secondary to specific antigen-antibody reactions. […] In this case, where large amounts of CM are available due to local deposition, even an ionic monomer was sufficient to block specific antibody-antigen reactivity (see Table III below).

Molecule: CNC(=O)c1c(I)c(NC(C)=O)c(I)c(C(=O)O)c1I.CNC[C@H](O)[C@@H](O)[C@H](O)[C@H](O)CO [Conray, methylglucamine iothalamate]
- Lowest concentration of CM showing a 2+ or 3+ inhibition of 1/500 IgG anti-γ-globulin (IgG anti-γ-globulin): 28.2 mg/mL
- Net decrease in mean arterial blood pressure (Brown Norway Rats; Monomers (4 ml)): decrease (37 ± 1.6) (3) mm Hg
- Net decrease in mean arterial blood pressure (Sprague Dawley Rats; Monomers (4 ml)): decrease (55 ± 5.0) (3) mm Hg

Molecule: CNC(=O)c1c(I)c(C(=O)NCC(=O)Nc2c(I)c(C(=O)O)c(I)c(C(=O)NCCO)c2I)c(I)c(N(C)C(C)=O)c1I [HEXABRIX, IOXAGLATE]
- Lowest concentration of CM showing a 2+ or 3+ inhibition of 1/500 IgG anti-γ-globulin (IgG anti-γ-globulin): 8.0 mg/mL
- Net increase in mean arterial blood pressure (Brown Norway Rats; Dimers (8 ml)): increase (31 ± 4.6) (3) mm Hg
- Return of blood pressure after ovalbumin challenge, compared with equiosmolar saline [1]: more rapid return of the blood pressure to normal levels

Molecule: CC(=O)N(CC(O)CN(C(C)=O)c1c(I)c(C(=O)NCC(O)CO)c(I)c(C(=O)NCC(O)CO)c1I)c1c(I)c(C(=O)NCC(O)CO)c(I)c(C(=O)NCC(O)CO)c1I (centres unmarked) [IODIXANOL]
- Cumulative score of inflammatory cell infiltration (0 to 3+ rating per eye) ([2]; 1 HOUR READING, 20 μl applied to the eye before ragweed pollen, 8 rats): 0
- Protection against ragweed pollen conjunctivitis (in words) ([2]; local application): provides a degree of protection
- Number of zero scores in the group ([2]; no absolute zeros in the saline group, study (ragweed or combined) not specified): 3
- Return of blood pressure after ovalbumin challenge, compared with equiosmolar saline [1]: more rapid return of the blood pressure to normal levels

Molecule: CN(C(=O)CC(=O)N(C)c1c(I)c(C(=O)NC(CO)C(O)CO)c(I)c(C(=O)NC(CO)C(O)CO)c1I)c1c(I)c(C(=O)NC(CO)C(O)CO)c(I)c(C(=O)NC(CO)C(O)CO)c1I (centres unmarked) [ISOVIST, IOTROLAN]
- Lowest concentration of CM showing a 2+ or 3+ inhibition of 1/500 IgG anti-γ-globulin (IgG anti-γ-globulin): 14.0 mg/mL
- Change in blood pressure (in words) ([3]; production of nitric oxide blocked by L-NAME): can no longer produce an elevation in blood pressure
- Change in blood pressure (in words) ([3]; substance injected by itself): produces an elevation in pressure
- Net increase in mean arterial blood pressure (Brown Norway Rats; Dimers (4 ml)): increase (18 ± 0.00 (1) mm Hg
- Net increase in mean arterial blood pressure (Brown Norway Rats; Dimers (8 ml)): increase (20 ± 2.0) (4) mm Hg
- Net increase in mean arterial blood pressure (Sprague Dawley Rats; Dimers (8 ml)): increase (11 ± 4.6) (3) mm Hg

Molecule: C[C@H](O)C(=O)Nc1c(I)c(C(=O)NC(CO)CO)c(I)c(C(=O)NC(CO)CO)c1I [Isovue, IOPAMIDOL]
- Net decrease in mean arterial blood pressure (Brown Norway Rats; Monomers (8 ml)): decrease (36 ± 8.6) (2) mm Hg
- Net decrease in mean arterial blood pressure (Sprague Dawley Rats; Monomers (8 ml)): decrease (27 ± 8.6) (2) mm Hg

Molecule: COC(=O)[C@@H](N)CCCNC(=N)N[N+](=O)[O-] [L-NAME, NG-nitro-L-arginine methyl ester]
- Change in blood pressure (in words) ([3]; substance injected by itself): immediate elevation in blood pressure

Molecule: CNC(=O)c1c(I)c(NC(C)=O)c([125I])c(C(=O)[O-])c1[125I].[Na+] [Na LOTHALAMATE]
- Lowest concentration of CM showing a 2+ or 3+ inhibition of 1/500 IgG anti-γ-globulin (IgG anti-γ-globulin): 28.2 mg/mL

Molecule: O=C(NCC(O)CO)c1c(I)c(C(=O)NCC(O)CO)c(I)c(N(CCO)C(=O)CO)c1I (centres unmarked) [OPTIRAY, IOVERSOL]
- Lowest concentration of CM showing a 2+ or 3+ inhibition of 1/500 IgG anti-γ-globulin (IgG anti-γ-globulin): 16.0 mg/mL
- Net decrease in mean arterial blood pressure (Brown Norway Rats; Monomers (4 ml)): decrease (20 ± 1.5) (3) mm Hg
- Net decrease in mean arterial blood pressure (Brown Norway Rats; Monomers (8 ml)): decrease (33 ± 2.8) (3) mm Hg
- Net decrease in mean arterial blood pressure (Sprague Dawley Rats; Monomers (8 ml)): decrease (22 ± 0.0) (1) mm Hg

Molecule: CN(C)CCOC(c1ccccc1)c1ccccc1 [diphenyhydramine, diphenhydramine]
- Change in blood pressure (in words) ([3]; substance injected by itself): immediate elevation in blood pressure

Molecule: Na/meglumine iothalamate [MD-76]
- Stain (mm ± S.E./10) ([4]; Site 1: 50 μl CM, 0 μl saline): 7.5 ± 7 mm
- Stain (mm ± S.E./10) ([4]; Site 2: 40 μl CM, 10 μl saline): 10.0 ± 10 mm
- Stain (mm ± S.E./10) ([4]; Site 3: 30 μl CM, 20 μl saline): 17.5 ± 10 mm
- Stain (mm ± S.E./10) ([4]; Site 4: 20 μl CM, 30 μl saline): 62.5 ± 28 mm
- Stain (mm ± S.E./10) ([4]; Site 5: 10 μl CM, 40 μl saline): 115 ± 60 mm
- Stain ([4]; controls with nonsensitized serum (3 rats), 0, 25, and 50 μl CM): no stain

Molecule: meglumine/sodium diatrizoate [Angiovist]
- Net decrease in mean arterial blood pressure (Brown Norway Rats; Monomers (8 ml)): decrease (40 ± 0.0) (1) mm Hg
